PMC8213385, “Development of a Fluorescent Assay to Search New Drugs Using Stable tdTomato-Leishmania, and the Selection of Galangin as a Candidate With Anti-Leishmanial Activity” (Frontiers in Cellular and Infection Microbiology, 2021)

How the values were obtained:
[1] = Cytotoxicity in macrophage cell line by the MTT method (colorimetric); type: cell-based; conditions: mouse, Raw 264.7 macrophage cell line; Raw 264.7, MTT, 48 h; read-out: Colorimetric CC50 μM (SE)
Protocol: The cytotoxicity against a cell line of macrophages (Raw 264.7) of GAL, MO, FI, RU, EGCG, PE, MI and MA was determined by the MTT method. Cells (3.3 x 10^5/ml) cells were treated with different concentrations of each compound during 48 h at 37°C, 5% CO2. The controls were incubated with RPMI-1640 medium. Briefly, 50 µl of MTT (2 mg/mL) was added to each well and, after 4 h of incubation at 37°C, 5% CO2, the reaction was stopped dissolving the formazan crystals with 100 µl/well of dimethyl sulfoxide. The relative amount of formazan produced by viable macrophages was determined using a spectrophotometer at 595 nm. The percentage of viable cells was calculated according to the formula (OD treated culture−OD blank)/(OD control−OD blank) ×100 as was described previously ([Adinehbeigi et al., 2017]). The cytotoxicity concentration 50% (CC50) was calculated for each compound.

[2] = system: promastigotes of L. amaz/tc3; assay: Transmission electron microscopy of treated promastigotes; type: cell-based, Leishmania (Leishmania) amazonensis; conditions: exposed to the IC50, 48 h
Protocol: Ultrastructural alterations in Leishmania induced by flavonoids with anti-leishmanial activity were analyzed by transmission electron microscopy (TEM). […] The control was a culture of L. amaz/tc3 incubated in complete RPMI-1640 medium. After 48 h of incubation, samples of L. amaz/tc3 promastigotes from each culture were fixed in modified Karnovsky’s solution (formaldehyde [2.66%], glutaraldehyde [1.66%]) and PBS 0.1M (pH 7,4), and incubated overnight at 4°C. The fixed samples were post-fixed with a 1/1 solution of PBS/2% osmium tetroxide (OsO4), overnight. Then the material was dehydrated and included in Spurr (Pelco, USA). Ultrathin sections were cut with an ultramicrotome (MT1, Sorvall, USA), mounted on copper grids, and contrasted with uranyl acetate (PELCO, USA) and lead citrate.

Q: With `O=c1c(O)c(-c2ccccc2)oc2cc(O)cc(O)c12` [GAL, Galangin] as the compound, how does the CC50 at 48 h [1] read?
A: The CC50 at 48 h was 22.8 µM.

Q: And the “Ultrastructural alterations in promastigotes (TEM)” value [2]?
A: The value was “dramatic changes in the mitochondrial structure”.
